“And” between values parts separate entries of the source, which are not always exact repeats. Equal entries are not always repeated. Where two headings read alike, the source gives them in different places.
Experiments:
[1] = human, oral, Nagamatsu et al. (1997), cited from earlier work
[2] = UDCA levels in human after oral administration of liquid solution or syrup containing 600 mg UDCA per day (five subjects); assay type: in vivo; design: unit not given here
Text: FIG. 3: Diagram of the mean(n=5) for group I for pharmacokinetic parameters of UDCA in human after an oral administration of liquid formulation of UDCA prepared according to Example IX without bismuth. FIG. 4: Diagram of the mean(n=5) for group II for pharmacokinetic parameters of UDCA in human after an oral administration of liquid formulation of UDCA prepared according to Example IX. […] Cmax is shown. Five human subjects were provided with dosage forms prepared according to this Example. The results are shown in Tables 5A and 5B and rendered graphically in FIGS. 3 and 4.

[3] = cited from earlier work
[4] = Hematic levels of UDCA and glyco UDCA after oral administration of 200 mg UDCA aqueous solution to three healthy men (Example VI); assay type: in vivo, human
Method: The aqueous solution dosage forms, according to this invention, containing 200 mg of ursodeoxycholic acid (UDCA), were prepared according to the method described in the above-described Example III and were administered to three healthy men having normal body weight after fasting. The hematic levels of UDCA and glyco UDCA were evaluated by means of well known chemical methods. After applying buffered serum to sep-pak column, methanol eluate was derivatized with phenacyl bromide at 80° C. for 45 minutes. These phenacyl bromide derivatives were dissolved in acetonitrile in preparation for HPLC. The experimental results of the absorption measured at certain times after dosage administration include the total absorption expressed as the area under the serum concentration-time curve (AUC: μg/mL×hours), the maximum hematic concentration (Cmax; μg/mL) that has been obtained, and the time (Tmax; hour) in which said maximum concentration has been obtained.
The experimental pharmacokinetic tests of the aqueous solution dosage forms according to this invention carried out on men show substantial improvement in AUC, Cmax and Tmax in comparison with the best results from any dosage forms known presently.
Table 4A and Table 4B show plasma concentration of UDCA and GUDCA measured in 3 men over time following on oral administration of the UDCA and GUDCA containing formulations according to Example VI and comparison of results against results of others employing different pharmaceutical formulations of UDCA.

[5] = oral, 200 mg UDCA solution of this invention

- UDCA level, Average ([2]; Table 5A: human, oral liquid solution containing 600 mg UDCA per day, 0 min): 0.618
- UDCA level, Average ([2]; Table 5A: human, oral liquid solution containing 600 mg UDCA per day, 5 min): 4.578
- UDCA level, Average ([2]; Table 5A: human, oral liquid solution containing 600 mg UDCA per day, 15 min): 20.394
- UDCA level, Average ([2]; Table 5A: human, oral liquid solution containing 600 mg UDCA per day, 60 min): 10.202
- UDCA level, Average ([2]; Table 5A: human, oral liquid solution containing 600 mg UDCA per day, 120 min): 2.168
- UDCA level, Average ([2]; Table 5A: human, oral liquid solution containing 600 mg UDCA per day, 240 min): 0.772
- UDCA level, Average ([2]; Table 5B: human, oral syrup containing 600 mg UDCA per day, 0 min): 0.398
- UDCA level, Average ([2]; Table 5B: human, oral syrup containing 600 mg UDCA per day, 5 min): 1.976
- UDCA level, Average ([2]; Table 5B: human, oral syrup containing 600 mg UDCA per day, 15 min): 7.144
- UDCA level, Average ([2]; Table 5B: human, oral syrup containing 600 mg UDCA per day, 60 min): 15.000
- UDCA level, Average ([2]; Table 5B: human, oral syrup containing 600 mg UDCA per day, 120 min): 4.820
- UDCA level, Average ([2]; Table 5B: human, oral syrup containing 600 mg UDCA per day, 240 min): 1.258
- concentration at 0.25 h ([4]; male, human, plasma, po, 200 mg, 200 mg UDCA solution of this invention, 0.25 h, three men): 8430 ± 1690 ng/mL
- concentration at 1 h ([4]; male, human, plasma, po, 200 mg, 200 mg UDCA solution of this invention, 1 h, three men): 1150 ± 470 ng/mL
- concentration at 1.5 h ([4]; male, human, plasma, po, 200 mg, 200 mg UDCA solution of this invention, 1.5 h, three men): 320 ± 110 ng/mL
- concentration at 0.5 h ([4]; male, human, plasma, po, 200 mg, oral, 200 mg UDCA solution of this invention, 0.5 h, three men, read-out: Plasma concentration, mean): 6550 ± 1050 ng/mL
- concentration at 0.5 h ([4]; male, human, plasma, po, 200 mg, oral, 200 mg UDCA solution of this invention, 0.5 h, read-out: Plasma concentration, individual men #1-#3): 4450 ng/mL
- concentration at 2 h ([4]; male, human, plasma, po, 200 mg, oral, 200 mg UDCA solution of this invention, 2 h, three men, read-out: Plasma concentration, mean): 190 ± 30 ng/mL
- concentration at 2 h ([4]; male, human, plasma, po, 200 mg, oral, 200 mg UDCA solution of this invention, 2 h, read-out: Plasma concentration, individual men #1-#3): 235 ng/mL
- concentration at 3 h ([4]; male, human, plasma, po, 200 mg, oral, 200 mg UDCA solution of this invention, 3 h, three men, read-out: Plasma concentration, mean): 170 ± 40 ng/mL
- concentration at 3 h ([4]; male, human, plasma, po, 200 mg, oral, 200 mg UDCA solution of this invention, 3 h, read-out: Plasma concentration, individual men #1-#3): 124 ng/mL
- AUC ([4]; male, human, plasma, po, 200 mg, oral, 200 mg UDCA solution of this invention, three men, read-out: AUC, mean): 5460 ± 660 ng·h/mL
- AUC ([4]; male, human, plasma, po, 200 mg, oral, 200 mg UDCA solution of this invention, read-out: AUC, individual men #1-#3): 4320 ng·h/mL
- Tmax ([4]; male, human, plasma, po, 200 mg, oral, 200 mg UDCA solution of this invention, read-out: Tmax, individual men #1-#3): 15 min
- Cmax ([4]; male, human, serum, po, 200 mg, oral, 200 mg UDCA solution of this invention, three men, read-out: Cmax, mean): 8430 ± 1690 ng/mL
- Tmax ([4]; male, human, serum, po, 200 mg, oral, 200 mg UDCA solution of this invention, three men, read-out: Tmax, mean): 15 min
- AUC, individual men #1-#3 [4, 5]: 6600 ng·h/mL and 5470 ng·h/mL
- Plasma concentration, individual men #1-#3 ([4]; oral, 200 mg UDCA solution of this invention, 0.5 h): 7743.2 ng/mL and 7439.5 ng/mL
- Plasma concentration, individual men #1-#3 ([4]; oral, 200 mg UDCA solution of this invention, 2 h): 217.6 ng/mL and 122.7 ng/mL
- Plasma concentration, individual men #1-#3 ([4]; oral, 200 mg UDCA solution of this invention, 3 h): 207.4 ng/mL
- Cmax compared with enteric coated sodium salt of UDCA preparations ([4]; oral, 200 mg, men): at least two times higher
- Cmax compared with regular UDCA tablet preparations ([4]; oral, 200 mg, men): four times higher
- Tmax compared with the fastest Tmax previously known ([4]; oral, 200 mg, men): at least three times faster
SMILES: C[C@H](CCC(=O)O)[C@H]1CC[C@H]2[C@@H]3[C@@H](O)C[C@@H]4C[C@H](O)CC[C@]4(C)[C@H]3CC[C@]12C [UDCA, ursodeoxycholic acid (3α-7β-dihydroxy-5β-cholanic acid)]
- Cmax (M ± S.E.) ([1]; 200 mg): 1900 ± 250 ng/mL
- Tmax (M ± S.E.) ([1]; 200 mg): 90 ± 24 min
- Cmax (M ± S.E.) ([1]; 400 mg): 7090 ± 1430 ng/mL
- Tmax (M ± S.E.) ([1]; 400 mg): 48 ± 12 min
- solubility in the gastric juices and in aqueous hydrochloric acid solution [3]: especially insoluble
- solubility in the gastric pH range [3]: no longer soluble
- solubility in water [3]: practically insoluble
- Cmax, individual men #1-#3 [4, 5]: 5210 ng/mL and 10920 ng/mL and 9160 ng/mL
- Plasma concentration, individual men #1-#3 ([4]; oral, 200 mg UDCA solution of this invention, 0.25 h): 5120.2 ng/mL and 10917.1 ng/mL and 9159 ng/mL
- Plasma concentration, individual men #1-#3 ([4]; oral, 200 mg UDCA solution of this invention, 1 h): 1692.1 ng/mL and 1546 ng/mL and 216.3 ng/mL
- Plasma concentration, individual men #1-#3 ([4]; oral, 200 mg UDCA solution of this invention, 1.5 h): 525.6 ng/mL and 275.9 ng/mL and 168 ng/mL
